The text below walks through data of paper PMC12051055, “Spectroscopy and crystallography define carotenoid oxygenases as a new subclass of mononuclear non-heme Fe^II enzymes” (The Journal of Biological Chemistry, 2025).

This experiment has as its target T1, CAO1 (Neurospora crassa carotenoid oxygenase 1) (Neurospora crassa, UniProt Q7S860).
T1 construct: gene cao-1
T1 sequence (Q7S860 1-526): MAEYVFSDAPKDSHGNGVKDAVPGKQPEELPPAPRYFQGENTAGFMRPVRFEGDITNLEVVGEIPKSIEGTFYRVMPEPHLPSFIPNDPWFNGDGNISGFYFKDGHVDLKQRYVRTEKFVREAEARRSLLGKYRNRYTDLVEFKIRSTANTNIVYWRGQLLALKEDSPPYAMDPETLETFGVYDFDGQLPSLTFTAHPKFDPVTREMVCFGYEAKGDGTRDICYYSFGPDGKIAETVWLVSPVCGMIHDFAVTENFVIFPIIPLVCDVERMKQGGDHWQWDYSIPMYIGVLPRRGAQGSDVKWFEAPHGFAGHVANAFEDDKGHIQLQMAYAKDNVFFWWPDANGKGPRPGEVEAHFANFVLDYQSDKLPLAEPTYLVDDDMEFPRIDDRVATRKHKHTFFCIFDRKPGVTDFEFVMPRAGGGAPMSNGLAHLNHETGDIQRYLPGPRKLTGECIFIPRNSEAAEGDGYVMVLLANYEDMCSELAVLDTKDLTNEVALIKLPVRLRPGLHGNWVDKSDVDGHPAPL
Kind of experiment: UV-visible/CD titration of Fe(II)-CAO1 (anaerobic); also X-ray crystal structure, MCD, steady-state kinetics. It counts as binding.

As usually defined, the Kd is the free concentration of one partner at which half of the binding sites on the other are occupied at equilibrium, for simple one-to-one binding. For the compound `Oc1cc(O)cc(/C=C/c2ccc(O)c(O)c2)c1` [piceatannol], the Kd is 50 nM.
